PubChem BioAssay AID248 (DTP/NCI, 2004)
Values joined by “and” are separate entries in the source; they are usually repeats but may differ in a detail not shown here. Identical values can stand only once. Toxic doses and inconclusive results are not listed. Cut-off read from the data, not from the text of the source: active = T/C of 150% or more; inactive = T/C below 125%.

Test system: L1210 leukemia ip in BDF1 mice, survival T/C
Assay: NCI In Vivo Anticancer Drug Screen. Data for tumor model L1210 Leukemia (intraperitoneal) in B6D2F1 (BDF1) mice
Conditions: endpoint: mean survival time, higher = longer survival
Summary of the method: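 Ratio derived from survival: compound-dosed mice over vehicle-dosed mice, all bearing a transplantable tumor.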

[1] = dose: 100.0 mg/kg/injection, schedule: Q04DX003 (ip), vehicle: Klucel (hydroxypropylcellulose) (HPC)
[2] = dose: 200.0 mg/kg/injection, schedule: Q04DX003 (ip), vehicle: Klucel (hydroxypropylcellulose) (HPC)
[3] = dose: 400.0 mg/kg/injection, schedule: Q04DX003 (ip), vehicle: Klucel (hydroxypropylcellulose) (HPC)
[4] = dose: 100.0 mg/kg/injection, schedule: Q01DX009 (ip), vehicle: saline with Tween-80
[5] = dose: 100.0 mg/kg/injection, schedule: Q01DX001 (ip), vehicle: Klucel (hydroxypropylcellulose) (HPC)
[6] = dose: 200.0 mg/kg/injection, schedule: Q01DX001 (ip), vehicle: Klucel (hydroxypropylcellulose) (HPC)
[7] = dose: 400.0 mg/kg/injection, schedule: Q01DX001 (ip), vehicle: Klucel (hydroxypropylcellulose) (HPC)
[8] = dose: 100.0 mg/kg/injection, schedule: Q01DX001 (ip), vehicle: saline
[9] = dose: 200.0 mg/kg/injection, schedule: Q01DX001 (ip), vehicle: saline
[10] = dose: 400.0 mg/kg/injection, schedule: Q01DX001 (ip), vehicle: saline
[11] = dose: 100.0 mg/kg/injection, schedule: Q01DX009 (ip), vehicle: Klucel (hydroxypropylcellulose) (HPC)
[12] = dose: 200.0 mg/kg/injection, schedule: Q01DX009 (ip), vehicle: Klucel (hydroxypropylcellulose) (HPC)

Measured: T/C

CCC[As](=O)(O)c1ccc(Cl)cc1
inactive: dose: 1.56 mg/kg/injection, schedule: Q01DX001 (ip), vehicle: Klucel (hydroxypropylcellulose) (HPC) 100 % of control | dose: 3.13 mg/kg/injection, schedule: Q01DX001 (ip), vehicle: Klucel (hydroxypropylcellulose) (HPC) 91 % of control | dose: 6.25 mg/kg/injection, schedule: Q01DX001 (ip), vehicle: Klucel (hydroxypropylcellulose) (HPC) 98 % of control | dose: 12.5 mg/kg/injection, schedule: Q01DX001 (ip), vehicle: Klucel (hydroxypropylcellulose) (HPC) 109 % of control | dose: 25.0 mg/kg/injection, schedule: Q01DX001 (ip), vehicle: Klucel (hydroxypropylcellulose) (HPC) 92 % of control

CC(=O)NCc1ccc(N2C(N)=NC(N)=NC2(C)C)cc1
inactive: dose: 75.0 mg/kg/injection, schedule: Q01DX009 (ip), vehicle: saline 92 % of control | dose: 150.0 mg/kg/injection, schedule: Q01DX009 (ip), vehicle: saline 87 % of control | dose: 300.0 mg/kg/injection, schedule: Q01DX009 (ip), vehicle: saline 90 % of control

CCC(C)(O)CCCC(C)C (stereo not given)
inactive: dose: 100.0 mg/kg/injection, schedule: Q04DX003 (ip), vehicle: saline 97 % of control | dose: 200.0 mg/kg/injection, schedule: Q04DX003 (ip), vehicle: saline 100 % of control | dose: 400.0 mg/kg/injection, schedule: Q04DX003 (ip), vehicle: saline 92 % of control

O=C1c2c(ccc3ccccc23)CCC1Br (stereo not given)
inactive: [1] 97 % of control | [2] 101 % of control | [3] 103 % of control

C/C=C(/Cl)c1c(C)cc(C)cc1C
inactive: dose: 25.0 mg/kg/injection, schedule: Q01DX009 (ip), vehicle: saline with Tween-80 91 % of control | dose: 50.0 mg/kg/injection, schedule: Q01DX009 (ip), vehicle: saline with Tween-80 98 % of control | [4] 89 % of control and 91 % of control | dose: 100.0 mg/kg/injection, schedule: Q04DX003 (ip), vehicle: saline with Tween-80 101 % of control | dose: 200.0 mg/kg/injection, schedule: Q04DX003 (ip), vehicle: saline with Tween-80 98 % of control | dose: 400.0 mg/kg/injection, schedule: Q01DX009 (ip), vehicle: saline with Tween-80 98 % of control | dose: 400.0 mg/kg/injection, schedule: Q04DX003 (ip), vehicle: saline with Tween-80 101 % of control

c1ccc(/C2=C(\c3ccccc3)CSSSSC2)cc1
inactive: dose: 50.0 mg/kg/injection, schedule: Q04DX003 (ip), vehicle: Klucel (hydroxypropylcellulose) (HPC) 105 % of control | [1] 98 % of control | [2] 98 % of control

C=CCn1c(SCc2ccccc2)nccc1=O
inactive: dose: 100.0 mg/kg/injection, schedule: Q04DX002 (ip), vehicle: Klucel (hydroxypropylcellulose) (HPC) 111 % of control | dose: 200.0 mg/kg/injection, schedule: Q04DX002 (ip), vehicle: Klucel (hydroxypropylcellulose) (HPC) 122 % of control | dose: 400.0 mg/kg/injection, schedule: Q04DX002 (ip), vehicle: Klucel (hydroxypropylcellulose) (HPC) 108 % of control

CC12CCC3C(CC=C4CC(SC(=N)N)CCC43C)C1CCC2=O (stereo not given)
inactive: [5] 95 % of control | [1] 97 % of control | [6] 95 % of control | [2] 95 % of control | [7] 101 % of control | [3] 97 % of control

O=C(OCc1ccccc1)Oc1ccc2ccccc2c1
inactive: [1] 102 % of control | [2] 95 % of control | [3] 95 % of control

CCCCCCC1CC(=O)CC(=O)C1
inactive: [8] 101 % of control | [9] 98 % of control | [10] 95 % of control

CC(N=Nc1ccccc1)/N=N/c1nn[nH]n1 (stereo not given)
inactive: [1] 100 % of control | [2] 94 % of control | [3] 96 % of control

CC(C)(C)NC1CCCC1Cl (stereo not given)
inactive: [4] 106 % of control | dose: 200.0 mg/kg/injection, schedule: Q01DX009 (ip), vehicle: saline with Tween-80 102 % of control

CS(=O)(=O)CCC(NC(=O)NCCCl)C(=O)O (stereo not given)
inactive: [5] 104 % of control | [6] 96 % of control | [7] 100 % of control

CC(=O)CCCCC(C)=O
inactive: [8] 98 % of control | [9] 101 % of control | [10] 104 % of control

O=C(O)/C(Cc1cccc(=O)n1Cc1ccccc1)=N\O
inactive: dose: 75.0 mg/kg/injection, schedule: Q01DX001 (ip), vehicle: Klucel (hydroxypropylcellulose) (HPC) 97 % of control | dose: 150.0 mg/kg/injection, schedule: Q01DX001 (ip), vehicle: Klucel (hydroxypropylcellulose) (HPC) 97 % of control | dose: 300.0 mg/kg/injection, schedule: Q01DX001 (ip), vehicle: Klucel (hydroxypropylcellulose) (HPC) 94 % of control

Cc1c(C)c2c(c(C)c1O)SC(CC(=O)O)C(=O)O2 (stereo not given)
inactive: [1] 100 % of control | [2] 100 % of control | [3] 100 % of control

Nc1csnn1
inactive: dose: 50.0 mg/kg/injection, schedule: Q01DX001 (ip), vehicle: carboxymethylcellulose (CMC) 98 % of control | dose: 100.0 mg/kg/injection, schedule: Q01DX001 (ip), vehicle: carboxymethylcellulose (CMC) 96 % of control | dose: 200.0 mg/kg/injection, schedule: Q01DX001 (ip), vehicle: carboxymethylcellulose (CMC) 98 % of control

CCOC(=O)C(N=Nc1ccccc1)C(C)=O (stereo not given)
inactive: dose: 12.5 mg/kg/injection, schedule: Q01DX009 (ip), vehicle: Klucel (hydroxypropylcellulose) (HPC) 100 % of control | dose: 25.0 mg/kg/injection, schedule: Q01DX009 (ip), vehicle: Klucel (hydroxypropylcellulose) (HPC) 97 % of control | dose: 50.0 mg/kg/injection, schedule: Q01DX009 (ip), vehicle: Klucel (hydroxypropylcellulose) (HPC) 94 % of control | [1] 103 % of control | [2] 100 % of control | [3] 88 % of control

COc1cccc(CNc2cccc([N+](=O)[O-])c2)c1OC
inactive: [11] 95 % of control | [1] 102 % of control | [12] 97 % of control | [2] 96 % of control | dose: 400.0 mg/kg/injection, schedule: Q01DX009 (ip), vehicle: Klucel (hydroxypropylcellulose) (HPC) 95 % of control | [3] 95 % of control

CCOP(=O)(/C(=C\c1ccccc1)C(=O)c1ccccc1)c1ccccc1 (stereo not given)
inactive: [11] 96 % of control | [1] 95 % of control | [12] 95 % of control | [2] 98 % of control | dose: 300.0 mg/kg/injection, schedule: Q01DX009 (ip), vehicle: Klucel (hydroxypropylcellulose) (HPC) 90 % of control | [3] 98 % of control

CC(SC1=NCCN1)C(=O)O (stereo not given)
inactive: [8] 98 % of control | [9] 94 % of control | [10] 98 % of control
